From paper PMC6260619, “Selective Cytotoxicity of Goniothalamin against Hepatoblastoma HepG2 Cells” (Molecules, 2011)
Read-outs that look alike come from different tables or passages of the source.

Key:
Assay type in all cases: cell-based, human
HepG2 cells [1] = assay: MTT cytotoxicity assay, HepG2; details: Homo sapiens, read-out: IC50 from MTT
Method: (§1) HepG2 and Chang cells were plated at 1 × 10^4 cells/well by adding 200 μL of a 5 × 10^4 cells/mL suspension to each well of a 96-well tissue culture plate. The plate was incubated for a sufficient time to assure attachment and 40% to 60% confluency. […] The last row was left as an untreated control. The plates were incubated at 37 °C, 5% CO2, for 24, 48 and 72 hours, respectively. After incubation with compounds, the media was aspirated off and replaced with fresh media. Then, MTT solution (20 μL) for a total volume of 200 μL was added in every well and incubated for 4 to 6 hours at 37 °C with 5% CO2. After that, MTT-containing medium was removed gently and replaced with DMSO (200 μL per well) to mix the formazan crystals until dissolved. The plates were read on microtiter plate reader at 570 nm. For each compound tested, the IC50 (concentration of drug needed to inhibit cell growth by 50%) is generated from the dose-response curves for each cell line.

Chang cells [2] = assay: MTT cytotoxicity assay, Chang; details: Homo sapiens, read-out: IC50 from MTT
Method: as §1

HepG2 cells [3] = assay: Cell cycle PI analysis by flow cytometry, HepG2
Method: The ability of a substance to affect specific phases of the cell cycle may provide clues as to its mechanism(s) of action. To determine the effects of goniothalamin on the cell cycle, HepG2 cells were treated with IC50 levels of goniothalamin (determined from the MTT assay) for 24, 48 and 72 hours, respectively. The cells were stained with PI and the DNA contents analyzed by flow cytometry.
(§2) The treated cells were trypsinized and washed with PBS. After centrifugation, the supernatant was removed. Then, 1 × 10^6 cells were harvested and fixed in ice-cold ethanol (70%). The fixed cells were centrifuged at high speed (180 × g) for 10 minutes to adequately pellet down the cells that were suspended in the ethanol. The pellet was washed by the ice-cold PBS and then centrifuged again at 180 × g for 10 minutes. The final pellet was resuspended with 1 mL of RNase and incubated at 37 °C for 30 minutes. At the end of incubation, DNA binding dye PI (1 mg/mL) was added to give a final concentration of 50 µg/mL. The mixture was incubated at room temperature for 10 min in the dark. Data acquisition and analysis were performed in by flow cytometry FACS Calibur flow cytometer (Becton Dickinson, Franklin Lakes, NJ, USA) using CellQuest 3.3 software.

Chang cells [4] = assay: Cell cycle PI analysis by flow cytometry, Chang
Method: The effect of goniothalamin on the cell cycle distribution of non-malignant Chang cells was also assessed. […] Accordingly, goniothalamin induced a marked apoptosis in a time-dependent manner at IC50 concentrations. As expected, the increase in the apoptotic population was associated with a concomitant enlargement of the pre-phase population, as observed in cell cycle analysis.
as §2

[5] = HepG2, 24h, at IC50 (goniothalamin 9.2 µM; doxorubicin 2.2 µM)
[6] = HepG2, 48h, at IC50 (goniothalamin 8.3 µM; doxorubicin 4.3 µM)
[7] = HepG2, 72h, at IC50 (goniothalamin 4.6 µM; doxorubicin […])
[8] = 24h, at IC50 (goniothalamin 79.10 µM; doxorubicin 0.83 µM)
[9] = 48h, at IC50 (goniothalamin 63.75 µM; doxorubicin 0.41 µM)
[10] = 72h, at IC50 (goniothalamin 35.01 µM; doxorubicin 0.28 µM)

`COc1cccc2c1C(=O)c1c(O)c3c(c(O)c1C2=O)C[C@@](O)(C(=O)CO)C[C@@H]3O[C@H]1C[C@H](N)[C@H](O)[C@H](C)O1` [Doxorubicin, reference compound] gave an IC50 (HepG2 cells [1]; HepG2, 24 h) of 2200 nM, an IC50 (HepG2 cells [1]; HepG2, 48 h) of 4300 nM and an IC50 (HepG2 cells [1]; HepG2, 72 h) of 1060 nM. It also gave an IC50 (Chang cells [2]; 24 h) of 830 nM, an IC50 (Chang cells [2]; 48 h) of 410 nM and an IC50 (Chang cells [2]; 72 h) of 280 nM. For the same compound, the G0/G1 (HepG2 cells [3]; [5]) was 76.46 ± 3.80%, the “G2+M” value (HepG2 cells [3]; [5]) was 11.64 ± 3.02% and the S (HepG2 cells [3]; [5]) was 8.54 ± 0.38%. The SubG0/G1 (HepG2 cells [3]; [5]) was 3.36 ± 1.02%, the G0/G1 (HepG2 cells [3]; [6]) was 65.17 ± 12.80% and the S (HepG2 cells [3]; [6]) was 15.15 ± 10.96%. For the same compound, the SubG0/G1 (HepG2 cells [3]; [6]) was 5.14 ± 2.53%, the G0/G1 (HepG2 cells [3]; [7]) was 60.64 ± 0.79% and the “G2+M” value (HepG2 cells [3]; [7]) was 2.66 ± 0.37%. For the same compound, the S (HepG2 cells [3]; [7]) was 5.91 ± 0.15%, the SubG0/G1 (HepG2 cells [3]; [7]) was 30.79 ± 0.57% and the G0/G1 (Chang cells [4]; [8]) was 50.84 ± 6.03%. The “G2+M” value (Chang cells [4]; [8]) was 16.36 ± 1.28%, the S (Chang cells [4]; [8]) was 22.09 ± 0.03% and the SubG0/G1 (Chang cells [4]; [8]) was 10.71 ± 7.28%. For the same compound, the G0/G1 (Chang cells [4]; [9]) was 62.43 ± 9.80%, the “G2+M” value (Chang cells [4]; [9]) was 10.37 ± 0.21% and the S (Chang cells [4]; [9]) was 15.31 ± 3.10%. The SubG0/G1 (Chang cells [4]; [9]) was 11.89 ± 6.49%, the G0/G1 (Chang cells [4]; [10]) was 54.12 ± 1.52% and the “G2+M” value (Chang cells [4]; [10]) was 8.63 ± 2.17%. The S (Chang cells [4]; [10]) was 15.19 ± 2.83% and the SubG0/G1 (Chang cells [4]; [10]) was 22.06 ± 5.17%.
